Test results reported in US6472348B1, “Pyridone derivatives and herbicides” (Kumiai Chemical Industry Co., Ltd., priority 1996, dated 2002).

How the values were obtained:
barnyardgrass (Ec) [1] = test: Test Example 1: herbicidal effects by paddy field soil treatment; type: in vivo; conditions: 100 g of the active ingredient per 10 ares, 21st day after the application, index 0-5 of Table 47;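 note: grade of growth control; 5 = at least 90%; 4 = 70 to 90%; 3 = 50 to 70%; 2 = 30 to 50%; 1 = 10 to 30%; 0 = under 10%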
Summary of the method: (§1)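 Scoring of herbicidal effect came 21 days after application of 100 g active ingredient per 10 ares to flooded (3 cm) paddy-soil pots sown with barnyardgrass, monochoria and bulrush, kept in a greenhouse.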

bulrush (Sc) = test: as above; type: in vivo; conditions: 100 g of the active ingredient per 10 ares, 21st day after the application, index 0-5 of Table 47;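 note: grade of growth control; 5 = at least 90%; 4 = 70 to 90%; 3 = 50 to 70%; 2 = 30 to 50%; 1 = 10 to 30%; 0 = under 10%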
Summary of the method: as §1

monochoria (Mo) = test: as above; type: in vivo; conditions: 100 g of the active ingredient per 10 ares, 21st day after the application, index 0-5 of Table 47;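 note: grade of growth control; 5 = at least 90%; 4 = 70 to 90%; 3 = 50 to 70%; 2 = 30 to 50%; 1 = 10 to 30%; 0 = under 10%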
Summary of the method: as §1

Digitaria ciliaris (Di) = test: Test Example 2: herbicidal effects by upland field soil treatment; type: in vivo; conditions: 100 g of the active ingredient per 10 ares, 21st day after the application, index 0-5 of Table 47;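 note: grade of growth control; 5 = at least 90%; 4 = 70 to 90%; 3 = 50 to 70%; 2 = 30 to 50%; 1 = 10 to 30%; 0 = under 10%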
Excerpt: (§2) (Test on Herbicidal Effects by Upland Field Soil Treatment)

barnyardgrass (Ec) [2] = test: as above; type: in vivo; conditions: 100 g of the active ingredient per 10 ares, 21st day after the application, index 0-5 of Table 47
Excerpt: as §2

[3] = system: common lambsquarters (Ch); test: as above; type: in vivo; conditions: 100 g of the active ingredient per 10 ares, 21st day after the application, index 0-5 of Table 47
Excerpt: as §2

pale smartweed (Po) [4] = test: as above; type: in vivo; conditions: 100 g of the active ingredient per 10 ares, 21st day after the application, index 0-5 of Table 47
Excerpt: as §2

rice flatsedge (Ci) [5] = test: as above; type: in vivo; conditions: 100 g of the active ingredient per 10 ares, 21st day after the application, index 0-5 of Table 47
Excerpt: as §2

slender amaranth (Am) [6] = test: as above; type: in vivo; conditions: 100 g of the active ingredient per 10 ares, 21st day after the application, index 0-5 of Table 47
Excerpt: as §2

Diaitaria ciliaris (Di) = test: Test Example 3: herbicidal effects by upland field foliage treatment; type: in vivo; set-up: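 grade of growth control; 5 = at least 90%; 4 = 70 to 90%; 3 = 50 to 70%; 2 = 30 to 50%; 1 = 10 to 30%; 0 = under 10%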
Summary of the method: (§3)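 Weeds were sown in sand-filled pots (surface area: 120 cm^2), covered with soil and grown in a greenhouse for 2 weeks before foliar treatment. Plants then stayed in the greenhouse, and herbicidal effect was scored against graded standards on the 14th day after treatment.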

barnyardgrass (Ec) [7] = test: as above; type: in vivo; set-up: scale not given here
Summary of the method: as §3

[8] = system: common lambsquarters (Ch); test: as above; type: in vivo; set-up: scale not given here
Summary of the method: as §3

pale smartweed (Po) [9] = test: as above; type: in vivo; set-up: scale not given here
Summary of the method: as §3

rice flatsedge (Ci) [10] = test: as above; type: in vivo; set-up: scale not given here
Summary of the method: as §3

slender amaranth (Am) [11] = test: as above; type: in vivo; set-up: scale not given here
Summary of the method: as §3

wheat (Tr) = test: Test Example 9: crop plant selectivity by upland field foliage treatment (wheat), phytotoxicity; conditions: dose 1.6 g ai/10a, 14th day after treatment
Summary of the method: (§4)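 Read-out: weed control and wheat injury, rated by a defined scoring standard 14 days after foliar application.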

China jute (Ab) [12] = test: Test Example 9: crop plant selectivity by upland field foliage treatment (wheat), herbicidal effects; type: in vivo; set-up: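 grade of growth control; 5 = at least 90%; 4 = 70 to 90%; 3 = 50 to 70%; 2 = 30 to 50%; 1 = 10 to 30%; 0 = under 10%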; conditions: dose 1.6 g ai/10a, 14th day after treatment
Summary of the method: as §4

[13] = system: common lambsquarters (Ch); test: as above; type: in vivo; set-up: scale not given here; conditions: dose 1.6 g ai/10a, 14th day after treatment
Summary of the method: as §4

pale smartweed (Po) [14] = test: as above; type: in vivo; set-up: scale not given here; conditions: dose 1.6 g ai/10a, 14th day after treatment
Summary of the method: as §4

slender amaranth (Am) [15] = test: as above; type: in vivo; set-up: scale not given here; conditions: dose 1.6 g ai/10a, 14th day after treatment
Summary of the method: as §4

corn (Ze) = test: Test Example 11: crop plant selectivity by upland field foliage treatment (corn), phytotoxicity; conditions: dose 1.6 g ai/10a
Method: (§5) (Test on Crop Plant Selectivity by Upland Field Foliage Treatment)
(§6) In a plastic pot (surface area: 600 cm^2) filled with sand, corn (Ze), pale smartweed (Po), slender amaranth (Am), common lambsquarters (Ch) and China jute (Ab) were sown and cultured in a green house for 2 weeks. […] The plants were then cultured in a green house, and the evaluation of the herbicidal effects and phytotoxicity was conducted on the 14th day after the treatment in accordance with the standards as identified in Table 47.

China jute (Ab) [16] = test: Test Example 11: crop plant selectivity by upland field foliage treatment (corn), herbicidal effects; type: in vivo; set-up: scale not given here; conditions: dose 1.6 g ai/10a
Method: as §5, §6

[17] = system: common lambsquarters (Ch); test: as above; type: in vivo; set-up: scale not given here; conditions: dose 1.6 g ai/10a
Method: as §5, §6

pale smartweed (Po) [18] = test: as above; type: in vivo; set-up: scale not given here; conditions: dose 1.6 g ai/10a
Method: as §5, §6

slender amaranth (Am) [19] = test: as above; type: in vivo; set-up: scale not given here; conditions: dose 1.6 g ai/10a
Method: as §5, §6

[20] = 100 g of the active ingredient per 10 ares, evaluated on the 14th day after treatment
[21] = upland field foliage treatment, 14th day after treatment
[22] = upland field foliage treatment (corn test), 14th day after treatment
[23] = 100 g active ingredient per 10 ares, evaluated 14th day after treatment

Cn1c(C(F)(F)F)ccc(-c2cc(C(=O)OCCBr)c(Cl)cc2F)c1=O [1-134]
Herbicidal effects Ec (barnyardgrass (Ec) [1]): 5
Herbicidal effects Sc (bulrush (Sc)): 5
Herbicidal effects Mo (monochoria (Mo)): 5
Herbicidal effects Di (Digitaria ciliaris (Di)): 5
Herbicidal effects Ec (barnyardgrass (Ec) [2]): 5
Herbicidal effects Ch [3]: 5
Herbicidal effects Po (pale smartweed (Po) [4]): 5
Herbicidal effects Ci (rice flatsedge (Ci) [5]): 5
Herbicidal effects Am (slender amaranth (Am) [6]): 5
Herbicidal effects Di (Diaitaria ciliaris (Di); [20]): 5
Herbicidal effects Ec (barnyardgrass (Ec) [7]; [20]): 5
Herbicidal effects Ch [8, 20]: 5
Herbicidal effects Po (pale smartweed (Po) [9]; [20]): 5
Herbicidal effects Ci (rice flatsedge (Ci) [10]; [20]): 5
Herbicidal effects Am (slender amaranth (Am) [11]; [20]): 5
Phytotoxicity Tr (wheat (Tr)): 2
Herbicidal effects Ab (China jute (Ab) [12]): 5
Herbicidal effects Ch [13]: 5
Herbicidal effects Po (pale smartweed (Po) [14]): 5
Herbicidal effects Am (slender amaranth (Am) [15]): 5
Phytotoxicity Ze (corn (Ze); [21]): 2
Herbicidal effects Ab (China jute (Ab) [16]; [22]): 5
Herbicidal effects Ch [17, 22]: 5
Herbicidal effects Po (pale smartweed (Po) [18]; [22]): 5
Herbicidal effects Am (slender amaranth (Am) [19]; [22]): 5

Cn1c(C(F)(F)F)ccc(-c2cc(OC3CCOC3)c(Cl)cc2F)c1=O (stereo not shown) [1-162]
Herbicidal effects Ec (barnyardgrass (Ec) [1]): 5
Herbicidal effects Sc (bulrush (Sc)): 5
Herbicidal effects Mo (monochoria (Mo)): 5
Herbicidal effects Di (Digitaria ciliaris (Di)): 5
Herbicidal effects Ec (barnyardgrass (Ec) [2]): 5
Herbicidal effects Ch [3]: 5
Herbicidal effects Po (pale smartweed (Po) [4]): 5
Herbicidal effects Ci (rice flatsedge (Ci) [5]): 5
Herbicidal effects Am (slender amaranth (Am) [6]): 5
Herbicidal effects Di (Diaitaria ciliaris (Di); [20]): 5
Herbicidal effects Ec (barnyardgrass (Ec) [7]; [20]): 5
Herbicidal effects Ch [8, 20]: 5
Herbicidal effects Po (pale smartweed (Po) [9]; [20]): 5
Herbicidal effects Ci (rice flatsedge (Ci) [10]; [20]): 5
Herbicidal effects Am (slender amaranth (Am) [11]; [20]): 5
Phytotoxicity Tr (wheat (Tr)): 2
Herbicidal effects Ab (China jute (Ab) [12]): 5
Herbicidal effects Ch [13]: 5
Herbicidal effects Po (pale smartweed (Po) [14]): 5
Herbicidal effects Am (slender amaranth (Am) [15]): 5
Phytotoxicity Ze (corn (Ze); [21]): 2
Herbicidal effects Ab (China jute (Ab) [16]; [22]): 5
Herbicidal effects Ch [17, 22]: 5
Herbicidal effects Po (pale smartweed (Po) [18]; [22]): 5
Herbicidal effects Am (slender amaranth (Am) [19]; [22]): 5

CCOC(=O)CN1C(=O)COc2cc(F)c(-c3ccc(C(F)(F)F)n(C)c3=O)cc21 [Compound 2-18]
Herbicidal effects Ec (barnyardgrass (Ec) [1]): 5
Herbicidal effects Sc (bulrush (Sc)): 5
Herbicidal effects Mo (monochoria (Mo)): 5
Phytotoxicity Tr (wheat (Tr)): 2
Herbicidal effects Ab (China jute (Ab) [12]): 5
Herbicidal effects Ch [13]: 5
Herbicidal effects Po (pale smartweed (Po) [14]): 5
Herbicidal effects Am (slender amaranth (Am) [15]): 5
Phytotoxicity Ze (corn (Ze); [21]): 2
Herbicidal effects Ab (China jute (Ab) [16]; [22]): 5
Herbicidal effects Ch [17, 22]: 5
Herbicidal effects Po (pale smartweed (Po) [18]; [22]): 5
Herbicidal effects Am (slender amaranth (Am) [19]; [22]): 5

CC(C)OCc1cc2c(-c3ccc(C(F)(F)F)n(C)c3=O)c(F)cc(Cl)c2o1 [Compound 4-33]
Herbicidal effects Ec (barnyardgrass (Ec) [1]): 5
Herbicidal effects Sc (bulrush (Sc)): 5
Herbicidal effects Mo (monochoria (Mo)): 5
Herbicidal effects Di (Diaitaria ciliaris (Di); [23]): 5
Herbicidal effects Ec (barnyardgrass (Ec) [7]; [23]): 5
Herbicidal effects Ch [8, 23]: 5
Herbicidal effects Po (pale smartweed (Po) [9]; [23]): 5
Herbicidal effects Ci (rice flatsedge (Ci) [10]; [23]): 5
Herbicidal effects Am (slender amaranth (Am) [11]; [23]): 5
Phytotoxicity Tr (wheat (Tr)): 2
Herbicidal effects Ab (China jute (Ab) [12]): 5
Herbicidal effects Ch [13]: 5
Herbicidal effects Po (pale smartweed (Po) [14]): 5
Herbicidal effects Am (slender amaranth (Am) [15]): 5
Phytotoxicity Ze (corn (Ze); corn, foliage treatment, evaluated on 14th day after treatment, index per Table 47): 2
Herbicidal effects Ab (China jute (Ab) [16]; China jute, foliage treatment, evaluated on 14th day after treatment, index per Table 47): 5
Herbicidal effects Ch ([17]; common lambsquarters, foliage treatment, evaluated on 14th day after treatment, index per Table 47): 5
Herbicidal effects Po (pale smartweed (Po) [18]; pale smartweed, foliage treatment, evaluated on 14th day after treatment, index per Table 47): 5
Herbicidal effects Am (slender amaranth (Am) [19]; slender amaranth, foliage treatment, evaluated on 14th day after treatment, index per Table 47): 5
